Active and inactive are the calls of the source. For most assays here, no stated cut-off is given here; in the data, actives have a measured IC50 and inactives only a lower limit.

The text below walks through data of ChEMBL document CHEMBL1201862, “PubChem BioAssay data set” (2004).

Assay [1] has as its target T1, Sentrin-specific protease 6 (Homo sapiens, UniProt Q9GZR1).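 Further: Luminescence-based dose-response confirmatory assay of SENP6 inhibition, following up an ultra-high-throughput screen.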
T1 sequence (Q9GZR1 whole entry): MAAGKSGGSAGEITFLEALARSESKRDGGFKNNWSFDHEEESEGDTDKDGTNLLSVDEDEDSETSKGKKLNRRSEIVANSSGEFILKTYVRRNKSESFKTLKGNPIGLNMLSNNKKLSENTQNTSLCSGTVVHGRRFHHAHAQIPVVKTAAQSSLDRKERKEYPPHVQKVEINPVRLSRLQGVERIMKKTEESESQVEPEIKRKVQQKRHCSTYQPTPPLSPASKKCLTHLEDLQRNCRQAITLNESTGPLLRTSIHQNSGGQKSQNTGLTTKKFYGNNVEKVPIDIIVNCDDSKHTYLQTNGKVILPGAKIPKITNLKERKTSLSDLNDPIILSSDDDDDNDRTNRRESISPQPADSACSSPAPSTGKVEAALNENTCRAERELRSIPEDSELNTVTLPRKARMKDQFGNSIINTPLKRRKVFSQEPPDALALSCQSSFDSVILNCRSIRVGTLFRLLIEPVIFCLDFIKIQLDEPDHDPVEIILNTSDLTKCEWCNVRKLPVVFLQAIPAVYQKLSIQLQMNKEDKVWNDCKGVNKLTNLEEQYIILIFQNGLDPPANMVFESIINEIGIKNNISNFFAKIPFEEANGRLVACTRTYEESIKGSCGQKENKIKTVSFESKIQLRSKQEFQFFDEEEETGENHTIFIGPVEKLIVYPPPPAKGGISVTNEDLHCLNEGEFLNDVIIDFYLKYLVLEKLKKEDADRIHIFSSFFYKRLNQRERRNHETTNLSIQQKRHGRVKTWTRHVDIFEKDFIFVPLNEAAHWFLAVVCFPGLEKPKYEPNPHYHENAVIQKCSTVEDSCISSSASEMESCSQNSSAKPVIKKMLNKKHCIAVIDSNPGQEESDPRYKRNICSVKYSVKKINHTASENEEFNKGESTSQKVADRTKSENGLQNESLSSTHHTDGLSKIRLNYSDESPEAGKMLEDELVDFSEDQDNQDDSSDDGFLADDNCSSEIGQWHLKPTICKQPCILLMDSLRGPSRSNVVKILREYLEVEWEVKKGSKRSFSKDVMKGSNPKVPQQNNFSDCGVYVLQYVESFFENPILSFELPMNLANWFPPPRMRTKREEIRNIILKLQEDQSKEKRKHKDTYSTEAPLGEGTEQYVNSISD
Type of assay: functional.

The target in assay [2] is T2, Sentrin-specific protease 8 (Homo sapiens, UniProt Q96LD8).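 Further: luminescence read-out of SENP8 inhibition, dose-response confirmation following an ultra-high-throughput screen.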
T2 sequence (Q96LD8 whole entry): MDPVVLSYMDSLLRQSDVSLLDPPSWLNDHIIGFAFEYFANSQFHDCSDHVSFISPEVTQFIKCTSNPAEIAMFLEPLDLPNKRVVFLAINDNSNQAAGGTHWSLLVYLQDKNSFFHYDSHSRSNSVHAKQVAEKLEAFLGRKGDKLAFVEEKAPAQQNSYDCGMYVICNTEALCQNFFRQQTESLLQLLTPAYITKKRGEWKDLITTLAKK
The format is functional.

For assay [3], the target named is T3, Sentrin-specific protease 7 (Homo sapiens, UniProt Q9BQF6).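 Further: Luminescence-based dose-response confirmation of ultra-high-throughput screening hits, measuring inhibition of SENP7.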
T3 sequence (Q9BQF6 whole entry): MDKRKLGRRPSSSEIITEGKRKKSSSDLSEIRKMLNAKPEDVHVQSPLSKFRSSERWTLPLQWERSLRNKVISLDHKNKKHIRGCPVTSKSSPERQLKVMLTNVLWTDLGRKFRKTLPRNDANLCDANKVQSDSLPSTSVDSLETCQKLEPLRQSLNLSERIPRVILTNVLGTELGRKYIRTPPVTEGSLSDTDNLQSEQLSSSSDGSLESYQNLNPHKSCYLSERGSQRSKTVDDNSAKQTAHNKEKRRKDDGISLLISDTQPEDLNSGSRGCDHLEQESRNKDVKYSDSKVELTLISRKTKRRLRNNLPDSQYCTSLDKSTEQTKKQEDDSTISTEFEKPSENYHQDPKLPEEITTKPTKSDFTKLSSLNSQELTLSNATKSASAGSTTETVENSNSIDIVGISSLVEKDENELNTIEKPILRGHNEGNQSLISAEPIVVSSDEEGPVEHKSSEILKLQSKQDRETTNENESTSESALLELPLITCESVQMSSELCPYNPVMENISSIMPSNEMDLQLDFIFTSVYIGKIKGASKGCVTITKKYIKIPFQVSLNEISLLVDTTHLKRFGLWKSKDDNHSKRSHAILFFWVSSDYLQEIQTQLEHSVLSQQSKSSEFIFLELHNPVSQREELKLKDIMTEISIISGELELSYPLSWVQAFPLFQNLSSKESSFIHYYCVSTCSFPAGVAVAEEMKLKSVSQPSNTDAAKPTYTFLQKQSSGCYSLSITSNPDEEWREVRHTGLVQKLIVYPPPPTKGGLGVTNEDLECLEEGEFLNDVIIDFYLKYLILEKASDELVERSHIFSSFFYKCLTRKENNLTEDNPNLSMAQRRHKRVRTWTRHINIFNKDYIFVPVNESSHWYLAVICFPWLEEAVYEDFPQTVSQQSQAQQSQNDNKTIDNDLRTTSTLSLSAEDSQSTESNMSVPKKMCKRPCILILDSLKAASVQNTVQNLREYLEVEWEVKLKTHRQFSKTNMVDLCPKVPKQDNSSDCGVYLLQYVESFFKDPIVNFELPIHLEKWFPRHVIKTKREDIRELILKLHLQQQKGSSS
Type of assay: functional.

Assay [4] addresses T4, Caspase-3 (Homo sapiens, UniProt P42574).
T4 sequence (P42574 whole entry): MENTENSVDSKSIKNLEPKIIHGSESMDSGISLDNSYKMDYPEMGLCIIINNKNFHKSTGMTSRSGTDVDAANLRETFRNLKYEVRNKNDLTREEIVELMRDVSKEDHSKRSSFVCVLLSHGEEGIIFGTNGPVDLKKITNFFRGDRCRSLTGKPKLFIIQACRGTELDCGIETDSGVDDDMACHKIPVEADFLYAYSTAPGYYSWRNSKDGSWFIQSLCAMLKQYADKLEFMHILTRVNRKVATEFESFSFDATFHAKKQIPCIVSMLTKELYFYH
The format is functional.

Assay [5] concerns the target T5, DNA repair and recombination protein RAD54-like (Homo sapiens, UniProt Q92698).
T5 sequence (Q92698 whole entry): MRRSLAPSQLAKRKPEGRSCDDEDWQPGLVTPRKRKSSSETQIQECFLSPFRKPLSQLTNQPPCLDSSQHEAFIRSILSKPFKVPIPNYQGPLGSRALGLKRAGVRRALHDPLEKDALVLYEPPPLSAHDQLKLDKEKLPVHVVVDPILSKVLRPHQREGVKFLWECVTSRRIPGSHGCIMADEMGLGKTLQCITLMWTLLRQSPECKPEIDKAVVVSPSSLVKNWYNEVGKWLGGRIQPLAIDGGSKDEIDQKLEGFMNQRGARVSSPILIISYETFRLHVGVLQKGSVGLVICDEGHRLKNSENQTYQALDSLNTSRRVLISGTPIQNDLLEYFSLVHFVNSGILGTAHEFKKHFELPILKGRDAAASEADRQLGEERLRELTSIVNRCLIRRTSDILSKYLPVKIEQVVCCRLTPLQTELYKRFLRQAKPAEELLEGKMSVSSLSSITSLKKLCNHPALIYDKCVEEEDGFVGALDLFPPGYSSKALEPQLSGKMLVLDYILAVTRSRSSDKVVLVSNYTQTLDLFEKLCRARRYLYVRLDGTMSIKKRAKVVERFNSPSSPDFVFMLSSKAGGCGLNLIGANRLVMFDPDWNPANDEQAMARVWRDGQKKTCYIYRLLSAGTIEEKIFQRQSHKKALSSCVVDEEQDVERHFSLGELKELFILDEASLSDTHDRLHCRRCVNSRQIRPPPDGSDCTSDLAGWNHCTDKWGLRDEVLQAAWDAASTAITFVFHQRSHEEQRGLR
The assay is described as follows: RAD54 Holliday junction migration blockers – biochemical, fluorescence, cherry-picked samples, dose series, confirmation (AID 651657). The format is functional.

Assay [6] deals with T6, Protein skinhead-1 (Caenorhabditis elegans, UniProt P34707).
T6 sequence (P34707 whole entry): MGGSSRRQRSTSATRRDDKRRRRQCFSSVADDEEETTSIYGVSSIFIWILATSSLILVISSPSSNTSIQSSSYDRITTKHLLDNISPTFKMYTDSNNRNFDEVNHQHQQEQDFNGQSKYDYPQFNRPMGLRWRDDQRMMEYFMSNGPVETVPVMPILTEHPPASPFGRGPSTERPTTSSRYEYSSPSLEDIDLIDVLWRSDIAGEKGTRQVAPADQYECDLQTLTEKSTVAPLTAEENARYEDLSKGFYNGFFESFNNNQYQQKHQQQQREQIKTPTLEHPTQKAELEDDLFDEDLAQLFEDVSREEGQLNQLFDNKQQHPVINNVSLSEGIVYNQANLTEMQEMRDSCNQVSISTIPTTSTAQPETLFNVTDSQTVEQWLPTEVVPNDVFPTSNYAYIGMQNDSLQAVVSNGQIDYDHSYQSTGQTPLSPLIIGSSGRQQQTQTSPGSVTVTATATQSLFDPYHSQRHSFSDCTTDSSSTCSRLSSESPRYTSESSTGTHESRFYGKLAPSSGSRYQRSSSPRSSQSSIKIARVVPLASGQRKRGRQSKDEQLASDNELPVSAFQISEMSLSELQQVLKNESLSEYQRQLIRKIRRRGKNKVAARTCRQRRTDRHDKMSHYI
The format is functional.

In assay [7] the target is T7, Mannose-6-phosphate isomerase (Homo sapiens, UniProt P34949).
T7 sequence (P34949 whole entry): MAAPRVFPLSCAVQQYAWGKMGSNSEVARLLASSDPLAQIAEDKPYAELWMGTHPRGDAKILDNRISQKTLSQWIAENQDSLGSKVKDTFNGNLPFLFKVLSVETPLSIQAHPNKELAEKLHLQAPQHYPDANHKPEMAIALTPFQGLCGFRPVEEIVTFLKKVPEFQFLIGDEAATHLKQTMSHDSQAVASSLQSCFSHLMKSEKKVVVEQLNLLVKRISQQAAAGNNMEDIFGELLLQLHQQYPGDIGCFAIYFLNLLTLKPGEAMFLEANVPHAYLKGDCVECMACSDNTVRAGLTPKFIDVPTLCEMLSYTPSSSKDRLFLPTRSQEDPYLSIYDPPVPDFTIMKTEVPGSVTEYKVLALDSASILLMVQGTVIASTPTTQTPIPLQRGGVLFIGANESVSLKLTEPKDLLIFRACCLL
In words: MPI inhibition at elevated mannose 6-phosphate – biochemical, fluorescence intensity, high mannose 6-phosphate, primary screen (AID 1220).

Turning to `O=C(Cc1ccccc1F)Nc1ccc(SC(F)F)cc1`, the IC50 in assay [1] was > 100 µM (inactive); in assay [2], > 100 µM (inactive); in assay [3] it was 13.7 µM (active); in assay [4], 41.8 µM (active).
On to `Cc1nnc2c(N3CCN(CCO)CC3)nc3ccccc3n12`, for which the AC50 in assay [5] is 57.7 µM (active).
On to `O=C(/C=C/c1cccs1)c1ccc(N2CCOCC2)cc1`, for which the IC50 is > 100 µM (inactive) in assay [6]; 5.47 µM (active) in assay [1]; 5.04 µM (active) in assay [2]; 2.77 µM (active) in assay [3]; 6.94 µM (active) in assay [4].
Consider `CCN(CC)CCNC(=O)c1cc2cc3ccc(OC)cc3nc2o1`, for which, in assay [5], the AC50 is 40.7 µM (active).
For `CN1CCN(CCCNC(=O)c2cc3c(=O)oc4ccccc4c3s2)CC1`, the half-maximal activity concentration (AC50) in assay [5] was 38.1 µM (active).
Take `O=C(Nc1ccc(NC(=O)c2cccs2)c(Cl)c1)c1cccs1`: the IC50 is 24.3 µM (active) in assay [1], 27.6 µM (active) in assay [2], 6.62 µM (active) in assay [3] and 17.4 µM (active) in assay [4].
For `O/C(=C\c1nc2ccccc2[nH]1)c1cccs1` the same measures were 8.18 µM (active), 13.1 µM (active), 7.98 µM (active) and 9.98 µM (active).
`CCCNc1nc2nc3ccccn3c(=O)c2cc1C(=O)NCCN1CCOCC1`: the AC50 in assay [5] was 32.4 µM (active).
As to `O=c1c2ccccc2oc2cc(NCCCN3CCOCC3)ccc12`, in assay [5], the AC50 was 23.3 µM (active).
With `Cc1c(CN2CCCCC2)c(O)n(CCO)c(=O)c1C#N`, the half-maximal inhibitory concentration (IC50) in assay [7] is > 50 µM (not active).
As to `COc1ccc(N2C(=O)CC(Sc3nc[nH]n3)C2=O)c(OC)c1` (stereo not drawn), the IC50 in assay [7] is listed as > 50 µM (not active).
For the compound `CC(=O)c1sc(N/N=C\c2ccccc2O)nc1C`, the IC50 was 10.3 µM (active) in assay [1], 16.3 µM (active) in assay [2], 3.4 µM (active) in assay [3] and 11 µM (active) in assay [4].
